Assay: UV/Vis scan of DTT effect on doxorubicin over time
Type: physicochemical
Details: high concentration of DTT, 17 hours
Description: Diothiothreitol (DTT) is a well known mild disulfide reducing agent and is used to maintain disulfide groups in their reduced thiol state. […] A high concentration of DTT was added to doxorubicin and was scanned at 1 hour time points using a UV/Vis spectrophotometer.

For `COc1cccc2c1C(=O)c1c(O)c3c(c(O)c1C2=O)C[C@@](O)(C(=O)CO)C[C@@H]3O[C@H]1C[C@H](N)[C@H](O)[C@H](C)O1` [doxorubicin], the “Change to the absorbance of doxorubicin on exposure to DTT” value was “very little change”.

Source: patent publication US20140030350A1, “Drug Delivery Systems” (BIOCOMPATIBLES UK LIMITED, priority 2011, published 2014)
